“Also recorded” adds a separate entry of the source.
Assays:
YTS cells [1] = assay: Golgi fragmentation and granule dispersion in LPA-stimulated YTS cells; format: cell-based; settings: 20 μM LPA for two hours, sodium salt
Description: One way to induce the Golgi outpost formation through elongation and fission, is using LPA, which is predicted to activate a pathway dependent on transforming protein RhoA and effectively induce the formation of Golgi Outpost. […] The cells were also tested for Cr-51 (FIG. 14C). […] This dispersion was thus increased in quantity and spread on the GCC2 KO cells.

YTS cells [2] = assay: Number of MTOC (alpha-tubulin hyper densities) in YTS cells treated with PLK4 inhibitors; format: cell-based; settings: 5 days, Centrinone 5 nM or CFI400495 50 nM
Description: (§1) Centrinone and CFI400495 are high affinity and selective PLK4 inhibitors that induce depletion of the centrosome and cell cycle arrest. YTS cells were treated for 5 days with Centrinone 5 nM or CFI400495 50 nM. […] For this experiment, 5×10^5 cells/ml YTS cells were incubated during 5 days Centrinone 5 nM or CFI400495 50 nM, every 24 hours the media were replaced with fresh media containing similar amounts of the drug. On day 5, cells were assessed by microscopy for gamma-tubulin or alpha-tubulin.

YTS cells [3] = assay: CD107a degranulation of treated YTS cells after conjugation with 721.221 target cells; format: cell-based; settings: 5 days, Centrinone 5 nM or CFI400495 50 nM
Description: CD107a (also known as LAMP-1) is the standard to measure the process of degranulation. The more CD107a is expressed on the surface of the cell after stimulation, the more granules have been released. This is limited to the immunological synapse, in part secondary to the convergence process. CD107a upregulation is measured via flow cytometry after PMA/lonomycin activation and can be measured following target cell conjugation. […] The latter requires synapse formation and engagement of receptors for downstream activation signaling. Differences in results between these two approaches (target cell conjugation versus PMA/lonomycin) map the candidate's impact to early (synapse formation and signaling) or late (mechanics of) degranulation.
as §1

YTS cells [4] = assay: Confocal microscopy of granule dispersion in YTS cells after Centrinone or CFI400495; format: cell-based; settings: YTS cells after treatment with Centrinone or CFI400495
Description: as §1

YTS cells [5] = assay: Lytic granule convergence/dispersion in dynein inhibitor-treated YTS cells on an activating glass surface (confocal microscopy); format: cell-based; settings: dynein inhibitor vs DMSO, activating glass surface 30 min
Description: (§2) YTS cells were treated with DMSO or one of three different dynein inhibitors (Ciliobrevin-D, Dynapyrazole-A, or Compound 3016) and then incubated on an activating glass surface for 30 min. Cells were fixed, stained for a-tubulin, F-actin, perforin, and DNA (DAPI), and imaged via spinning disc confocal microscopy. Examples of individual cells (top) showing all stains and a broader field (bottom) at lower magnification showing only perforin to give an impression of the degree of granule convergence in a field of cells (FIG. 10A). […] Points show mean+SD of 3 independent experiments measuring >20 cells each.
This work served as proof-of-concept that influencing positional degranulation can be used to harness the NK cell lytic machinery.
To identify the best candidates to control lytic granule positioning, a high throughput screen (HTS) for activation-induced lytic granule convergence was developed. This is a novel method that utilizes a simple shape-based approach (a grid based on the a-tubulin defined NK cell footprint and Euclidean distance from the MTOC) to generate an estimated mean granule distance (eMGD) from the MTOC (FIGS. 11A-11C). This approach allows us to quickly screen large numbers of molecular candidates. MGD will be measured in 3D in fixed NK cells activated on an anti-NKp30/anti-CD18 or anti-CD28/anti-CD18 coated glass surface over a range of activation times, conditions, and NK cell types. Cells will be stained to identify the MTOC (for example, pericentrin) and lytic granules (mature perforin). The measured MGD is an indicator of convergence.

NK cell [6] = assay: Durability/reversibility of deconvergence after the inhibitor is removed from media; format: cell-based; settings: NK cell activation on activating glass surface at different times after removal from media
Description: as §2
Reversibility time for convergence is determined by activating small molecule inhibitor pre-treated NK cells on anti-NKp30/anti-CD18-coated or anti-CD28/anti-CD18 glass surfaces in the absence of the compound of interest. In short-term live-cell experiments, cells are labeled with lysotracker and fluorescent protein-conjugated tubulin; for longer term experiments, the more durable lytic granule label, LAMP1-mApple, is used. The efficiency of non-directional degranulation will be measured with the previously disclosed LAMP1-pHluorin cell line, which marks the lytic granule pH change that accompanies degranulation. […]

NK cell [7] = settings: previous work, cited from earlier work
NK cells = assay: Lytic granule dispersion in pretreated NK cells seeded on surfaces coated with activating antibodies; format: cell-based; settings: NK cells pretreated at 5 μM for 30 min
Text: FIGS. 59B-59E are magnified image of marked areas in FIG. 59A focusing on cells with dispersed granule. Perforin staining is shown in green, and alpha-tubulin is staining is shown in red.
FIGS. 60B-60E are magnified image of marked areas in FIG. 60A focusing on cells with dispersed granule. The position of the granules is indicated by perforin staining.
FIGS. 61B-61E are magnified image of marked areas in FIG. 61A focusing on cells with dispersed granule. The position of the granules is indicated by perforin staining.
NK cells were pretreated with N-{1-[(4-chlorophenyl)methyl]piperidin-4-yl}prop-2-enamide (FIG. 56) at […] for 30 min. The treated NK cells were seeded onto surfaces coated with activating antibodies.
NK cells were pretreated with 1-(prop-2-enamido)-N-[(thiophen-2-yl)methyl]cyclohexane-1-carboxamide (FIG. 57) at 5 μM for 30 min. The treated NK cells were seeded onto surfaces coated with activating antibodies.
NK cells were pretreated 1-[3-(4-fluorophenyl) prop-2-enoyl]-4-hydroxypyrrolidine-2-carboxylic acid (FIG. 58) at 5 μM for 30 min. The treated NK cells were seeded onto surfaces coated with activating antibodies.

YTS cells [8] = assay: Mean granule distance (MGD) and automated estimated MGD (eMGD) from the MTOC in activated YTS cells; format: cell-based; settings: YTS cells activated on glass via CD18/CD28 for 30 minutes, p<0.01
Text: FIGS. 11A-11H depict exemplary results related to mean granule distance (MGD) and automated estimated mean granule distance (eMGD). FIG. 11A depicts an exemplary high-resolution confocal imaging of lytic granules (labeled by perforin) and tubulin, which allows for automated intensity threshold-based identification of granules as shown in FIG. 11B (outlines indicate for granules and the microtubule-organizing center (MTOC)). FIG. 11C depicts the equation for calculating […] using x and y coordinates of each granule relative to the MTOC. […] FIG. 11E is an exemplary image of a fixed NK cell from the screen (labeled with perforin and tubulin) to which the Euclidean method for assessing granule localization relative to a total cell, tubulin-defined footprint of FIG. 11F can be applied. eMGD is then calculated using a Matlab script and the formula shown in FIG. 11G. […]
To identify the best candidates to control lytic granule positioning, a high throughput screen (HTS) for activation-induced lytic granule convergence was developed. […] MGD will be measured in 3D in fixed NK cells activated on an anti-NKp30/anti-CD18 or anti-CD28/anti-CD18 coated glass surface over a range of activation times, conditions, and NK cell types. […] The measured MGD is an indicator of convergence. […]

YTS cells [9] = assay: Granule distance to MTOC in Dynapyrazole A-treated YTS cells on a CD28/CD18 activating surface; format: cell-based; settings: 5 μM for 30 minutes, washed
Description: (§3) YTS cells are treated with 5 μM of Dynapyrazole A for 30 minutes, then washed twice with culture media. Then cells are stimulated either with 721.221 target cells, K562 target cells, or with an activating surface (coverslip coated with anti CD18 and/or anti CD28).

bystander K562 cells = assay: Bystander killing by Dynapyrazole A-pretreated YTS cells; format: cell-based; settings: YTS cells pretreated with 5 μM for 30 minutes
Text: The graph is representative of three independently performed biological repeats.
To assess tumor cell and bystander killing, TheCOS comprises NK cell lines, tumor cell targets, and NK-resistant tumor cell bystanders. LAMP1-mApple-pHluorin-expressing NK cell lines enable visualization of granules (mApple) and degranulation events (pHluorin transition). mTurquoise2 mark susceptible tumor cells, and Citrine mark bystander cells. SYTOX deep red is included in the hydrogel to identify the nuclei of dying cells. A cell positive for Turquoise and SYTOX fluorescence denote a dying tumor cell, whereas a cell positive for Citrine and SYTOX indicate a dying bystander cell. 1×10^5 target tumor cells and 1×10^5 NK cells (for an initial 1:1 tumor to effector ratio)+/−1×10^6 bystander cells are deposited into separate thermally responsive hydrogel layers and then encased in thermally stable hydrogel. This sandwich is then deposited the into our imaging chamber. Prewarmed media is added to collapse the hydrogel layers.
as §3

1-Oleoyl lysophosphatidic acid sodium salt [LPA]
Golgi fragmentation (YTS cells [1]): increase in Golgi fragments; also recorded: Golgi fragmentation | granule dispersion / convergence (YTS cells [1]): blocks convergence; also recorded: granule dispersion

COc1ccc2c(c1)[C@]1(C[C@H]1c1ccc3c(/C=C/c4ccc(CN5C[C@@H](C)O[C@@H](C)C5)cc4)n[nH]c3c1)C(=O)N2.O=C(O)/C=C/C(=O)O [CFI400495, Spiro[cyclopropane-1,3′-[3H]indol]-2′(1′H)-one, 2-[3-[(E)-2-[4-[[(2R,6S)-2,6-dimethyl-4-morpholinyl]methyl]phenyl]ethenyl]-1H-indazol-6-yl]-5′-methoxy-, (1R,2S)-, (2E)-2-butenedioate (1:1)]
number of MTOC (alpha Tubulin hyper densities) (YTS cells [2]): increase number of mTOC | degranulation (CD107a expression) (YTS cells [3]): increases degranulation | granule dispersion (confocal microscopy images) (YTS cells [4]): more disperse granules

N#CC(C(=O)c1ccc(Cl)cc1Cl)=C1NC(=O)c2ccc(Cl)cc2N1 [Ciliobrevin D, 2-(7-chloro-4-oxo-3,4-dihydroquinazolin-2 (1H)-ylidene)-3-(2,4-dichlorophenyl)-3-oxopropanenitrile]
lytic granule convergence / dispersion (YTS cells [5]): lytic granule dispersion | lytic granule convergence / dispersion (YTS cells [5]; listed as CIL-D): highly effective in preventing lytic granule convergence | durability of deconvergence after inhibitor removed from media (NK cell [6]): Neither inhibitor, however, promotes sustained deconvergence | durability of deconvergence after inhibitor removed from media (NK cell [6]; listed as CIL-D): quickly reversible | killing of bystander cells (NK cell [7]; UGATm and other single cell assays): promoted killing of bystander cells | inhibition of lytic granule convergence (previously used) (NK cell [7]): inhibit lytic granule convergence

O=C(O)C1CC(O)CN1C(=O)C=Cc1ccc(F)cc1 (stereo not shown) [Compound 3977, 1-[3-(4-fluorophenyl)prop-2-enoyl]-4-hydroxypyrrolidine-2-carboxylic acid]
lytic granule dispersion (NK cells): induce lytic granule dispersion; also recorded: lytic granule dispersion induced

C=CC(=O)NC1CCN(Cc2ccc(Cl)cc2)CC1 [Compound 5814, N-{1-[(4-chlorophenyl)methyl]piperidin-4-yl}prop-2-enamide]
lytic granule dispersion (NK cells): induce lytic granule dispersion; also recorded: lytic granule dispersion induced

C=CC(=O)NC1(C(=O)NCc2cccs2)CCCCC1 [Compound 7779, 1-(prop-2-enamido)-N-[(thiophen-2-yl)methyl]cyclohexane-1-carboxamide]
lytic granule dispersion (NK cells): induce lytic granule dispersion; also recorded: lytic granule dispersion induced

N#Cc1c(C2(c3ccc(Cl)cc3)CC2)nn2c1[nH]c(=O)c1cc(I)ccc12 [Dynapyrazole A, 2-[1-(4-Chlorophenyl)cyclopropyl]-4,5-dihydro-7-iodo-5-oxopyrazolo[1,5-a]quinazoline-3-carbonitrile]
lytic granule convergence / dispersion (YTS cells [5]; listed as Dynapyrazole-A): lytic granule dispersion | lytic granule convergence / dispersion (YTS cells [5]; listed as dynapyrazole-A): highly effective in preventing lytic granule convergence | estimated mean granule distance (eMGD), change vs DMSO (YTS cells [8]; GE InCell Analyzer): Increase | mean granule distance (MGD), change vs DMSO (YTS cells [8]; confocal microscope): Increase | lytic granule dispersion (granule distance to MTOC) (YTS cells [9]): induces lytic granule dispersion | lytic granule dispersion (granule distance to MTOC) (YTS cells [9]; listed as Dynapyrazole-A): high lytic granule dispersion | killing of bystander K562 cells (bystander K562 cells): kill bystander K562 cells | killing of bystander K562 cells (bystander K562 cells; listed as Dynapyrazole-A): kill bystander K652 cells

Source: patent US20250082752A1, “COMPOUNDS, TARGETS, AND METHODS FOR MODULATING LYTIC GRANULE CONVERGENCE IN CYTOTOXIC CELLS TO PROMOTE BYSTANDER KILLING IN CELLULAR THERAPIES” (THE TRUSTEES OF COLUMBIA UNIVERSITY IN THE CITY OF NEW YORK, priority 2022, published 2025)
